In paper PMC5035034, “Carbohydrate-Binding Non-Peptidic Pradimicins for the Treatment of Acute Sleeping Sickness in Murine Models” (PLoS Pathogens, 2016):

Biological target: T1, VSG221 (variant surface glycoprotein 221, MITat 1.2) (Trypanosoma brucei, UniProt P26332)
T1 construct: soluble form VSG (sVSG) purified from parental bloodstream forms, N-glycosylated (Asn263, Asn428)
Test: SPR (Biacore T200) on immobilized VSG221, […]; supported by HHA-FITC and CV-N-FITC competition on live parasites
Assay type: binding

`CN[C@@H]1[C@H](O[C@@H]2O[C@H](CO)[C@@H](O)[C@H](OS(=O)(=O)O)[C@H]2O)[C@@H](O)[C@H](O[C@H]2c3cc(C)c(C(=O)N[C@H](C)C(=O)O)c(O)c3-c3c(cc4c(c3O)C(=O)c3cc(OC)cc(O)c3C4=O)[C@@H]2O)O[C@@H]1C` [PRM-S, pradimicin S] was tested, and the “SPR (Biacore T200) on immobilized VSG221, 1.56 to 50 uM; supported by HHA-FITC a” value was “A significant concentration-dependent binding to the parental Tb BSF VSG221-bound sensorchip was observed”.
